Laboratory results from patent publication US7138122B2, “Therapeutic systems” (Enzacta R & D Limited, priority 1997, dated 2006).

Legend:
[1] = system: human T98G gliobastoma cells; test: Cytotoxicity of CB 1954 on T98G glioblastoma cells with NQO2 co-substrates; conditions: no co-substrate
Experimental: Cells in exponential phase of growth were trypsinised, seeded in 96 well plates at a density of 5×10^4 cells per well (100 μl) and permitted to recover for 24 hours. Then 50 μl of medium was removed and replaced with 50 μl of fresh medium containing 200 μM NRH to give a final concentration of 100 μM. Serial dilutions of CB 1954 (8 of 3.66×) were performed in situ giving final concentrations of 1000–0.46 μM. Cells were then incubated with drug for 72 hours at 37° C. The plates were fixed and stained with sulforhodamine-B; the absorption at 590 nm read and results were expressed as percentage of control growth. The IC50 values were evaluated by interpolation.
The cells were treated as for V79 cells but were treated for 144 hr in presence of CB 1954.

[2] = target: T1, Rat DT-diaphorase (Rattus norvegicus, UniProt P05982); conditions: with respect to CB 1954; NADH as co-substrate; cited from earlier work
T1 sequence (P05982 2-274 limits assumed): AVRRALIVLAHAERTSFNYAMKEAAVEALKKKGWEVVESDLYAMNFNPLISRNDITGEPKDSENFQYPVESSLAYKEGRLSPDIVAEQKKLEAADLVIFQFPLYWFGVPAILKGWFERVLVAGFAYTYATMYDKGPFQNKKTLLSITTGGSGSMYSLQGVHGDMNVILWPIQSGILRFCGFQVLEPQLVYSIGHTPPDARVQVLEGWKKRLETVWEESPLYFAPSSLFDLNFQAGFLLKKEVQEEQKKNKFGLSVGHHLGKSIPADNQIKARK

[3] = target: Human DT-diaphorase (Homo sapiens, UniProt P15559); conditions: with respect to CB 1954; NADH as co-substrate; cited from earlier work
[4] = target: E. coli nitroreductase (Escherichia coli, UniProt P38489); conditions: with respect to CB 1954; NADH as co-substrate; cited from earlier work
[5] = system: non-transfected V79 cells; test: Cytotoxicity of CB 1954 with NRH in non-transfected V79 cells; assay type: cell-based, Chinese hamster; conditions: 100 μM NRH added, 72 hours
[6] = target: T2, NQO2 (Homo sapiens, UniProt P16083); test: Co-substrate activity with NQO2 for reduction of CB 1954 (HPLC); assay type: biochemical; set-up: restriction site were added to the 5′ and 3′-ends of the full-length NQO2 cDNA; made in house; host or cells: E. coli (expression vector pKK233-2, plasmid pKK-hNQO2)
T2 sequence (P16083 1-231): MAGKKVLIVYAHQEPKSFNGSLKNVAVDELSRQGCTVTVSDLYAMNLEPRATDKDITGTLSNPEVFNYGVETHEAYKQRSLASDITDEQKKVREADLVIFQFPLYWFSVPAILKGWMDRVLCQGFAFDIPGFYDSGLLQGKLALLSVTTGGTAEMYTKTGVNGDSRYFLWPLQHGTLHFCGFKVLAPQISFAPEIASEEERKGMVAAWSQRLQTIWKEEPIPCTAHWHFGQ
Experimental: The effect of various co-substrates on CB 1954 was determined as above but NADH. NADPH or NMNH was substituted for the NRH and CB 1954 was used at a fixed concentration of 100 μM. The enzyme concentration was 5 μg/ml. The reduction of CB 1954 was monitored by measuring both the decrease in its corresponding peak area on the HPLC trace and the increase in the area of the peak corresponding to the reduction product 5-(aziridin-1-yl)-4-hydroxylamino-2-nitrobenzamide. The relative rates of reduction were determined at 10% reduction of CB1954 from a graph plotting CB 1954 reduction against time. The time axis was normalised to the equivalent of 10 μg/ml of NQO2.
The activity of various potential co-substrates was determined by HPLC analysis in the presence of CB1954 and NQO2. To determine the kinetic parameters NQO2 (1 μg/ml) was incubated with NRH (5000 μM) and CB1954 at different concentrations (0.1 to 2 mM) in sodium phosphate buffer (10MM, pH 7) at 37° C. At various times, aliquots (10 μl) were injected onto a Partisphere SCX (250×4.5 mm) HPLC column (Whatman Ltd) and eluted isocratically (1.5 ml/min) with 50 mM aqueous sodium phosphate containing 1% methanol. The eluate was continuously monitored for absorption at 320 nm. […] The reduction of CB1954 was monitored by quantifying the increase in the area of the peak corresponding to the reduction product 5-(aziridin-1-yl)-4-hydroxylamino-2-nitrobenzamide. All the assays were initiated by addition of the enzyme and performed in duplicate. The kinetic parameters were calculated by plotting the initial rate of reduction at each concentration of CB1954 against that concentration and fitting the data to the Michaelis-Menton equation using a computer programme (Fig P). Values were confirmed by transforming the data and fitting it to various linear forms of the equation by regression analysis.
The effect of various co-substrates on CB1954 reduction was determined as above but the co-substrate was substituted for the NRH and C1954 was used at a fixed concentration of 100 μM. The enzyme concentration was 1 or 5 μg/ml. The reduction of CB1954 was monitored by measuring both the decrease in its corresponding peak area on the HPLC trace and the increase in the area of the peak corresponding to the reduction product 5-(aziridin-1-yl)-4-hydroxylamino-2-nitrobenzamide. The relative rates of reduction were determined at 10% reduction of CB1954 from a graph plotting CB1954 reduction against time. The time axis was normalised to the equivalent of 10 μg/ml of NQO2. The kinetic parameters of NQO2 for the various co-substrates was determined as for CB1954 except that the initial concentration of CB1954 was constant at 100 μm whilst that of the co-substrate was varied from 0 to 2 mM. The enzyme concentration was 0.5 μg/ml.

[7] = system: NQO2 expressing V79 cells; test: Cytotoxicity of CB 1954 with NRH in NQO2-transfected V79 cells; assay type: cell-based, Chinese hamster; conditions: 100 μM NRH added, 72 hours
Experimental: Transfection quality H6 DNA was prepared using the QIAGEN endotoxin-free maxiprep kit. Chinese hamster lung embryo fibroblasts (V79) were transfected with the purified H6 using DOTAP liposomal reagent according to the manufacturer's instructions (Boehringer Mannheim). Two days after transfection puromycin-resistant clones were selected in DMEM/10% FCS containing 10 μg/ml puromycin (Sigma) and grown on to establish cell lines designated V79TM1, 5, 3, 7, 9, 11 and 13 respectively and maintained in selective medium.

Chain of Human DT-diaphorase (P15559 whole entry): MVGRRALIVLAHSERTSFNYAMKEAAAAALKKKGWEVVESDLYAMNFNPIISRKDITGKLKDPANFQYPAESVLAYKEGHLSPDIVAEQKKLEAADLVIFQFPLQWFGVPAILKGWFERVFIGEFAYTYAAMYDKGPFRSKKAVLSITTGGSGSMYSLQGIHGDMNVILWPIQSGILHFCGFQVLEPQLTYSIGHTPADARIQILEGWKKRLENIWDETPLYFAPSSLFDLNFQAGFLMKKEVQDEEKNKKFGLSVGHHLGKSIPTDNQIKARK
Chain of E. coli nitroreductase (P38489 whole entry): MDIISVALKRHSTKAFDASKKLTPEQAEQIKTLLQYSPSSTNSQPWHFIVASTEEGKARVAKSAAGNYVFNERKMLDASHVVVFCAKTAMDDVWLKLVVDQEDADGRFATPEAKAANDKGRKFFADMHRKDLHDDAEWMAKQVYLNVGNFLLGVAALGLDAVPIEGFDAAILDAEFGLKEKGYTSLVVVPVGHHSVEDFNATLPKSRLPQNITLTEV

SMILES | toxicity of CB1954 alone [1] | Km [2] | kcat [2] | Km [3] | kcat [3] | kcat [4] | increase of the cytotoxicity of CB 1954 [5] | RELATIVE RATE OF REDUCTION ([6]; CB 1954 reduction by NQO2, co-substrate initial 500 μM, CB 1954 initial 100 μM) | Km ([6]; of NQO2 for the co-substrate, CB1954 as electron acceptor (100 μM)) | kcat ([6]; of NQO2 with the co-substrate, CB1954 as electron acceptor) | increase of the cytotoxicity of CB 1954 ([7]; V79TM5 and 13 cell lines) | increase of the cytotoxicity of CB 1954 ([7]; V79TM13 cells)
NC(=O)c1cc(N2CC2)c([N+](=O)[O-])cc1[N+](=O)[O-] [CB 1954, 5-(aziridin-1-yl)-2,4-dinitrobenzamide] | not toxic | 826 µM | 0.0683 s⁻¹ | 1400 µM | 0.0107 s⁻¹ | 6.0 s⁻¹ | – | – | – | – | – | –
NC(=O)C1=CN([C@@H]2O[C@H](CO)[C@@H](O)[C@H]2O)C=CC1 [NRH, dihydronicotinamide riboside] | – | – | – | – | – | – | < 3 fold | 70.0 | 28 ± 2 µM | 6 s⁻¹ | greater than 100 fold | at least 100 fold
